Experimental data as given in US20250206779A1, “ANGIOTENSIN-(1-9) ANALOGUE BASED ON D AMINO ACIDS, PHARMACEUTICAL COMPOSITIONS AND USES THEREOF” (UNIVERSIDAD DE CHILE, priority 2021, published 2025).
Each block holds one molecule with its values, some of them ahead of it. Where a SMILES comes first, the peptide text is derived from it. Where no end group is shown, it is not given here. [ ]: non-standard residue; d: D form.

Assays:
[1] = test system: adult rat cardiac fibroblasts; experiment: Cardiac fibroblast proliferation, cell count in Neubauer chamber; format: cell-based; settings: DMEM F-12 5% FBS, 24 h, trypan blue cell count
Method: Male Sprague-Dawley rats (250-300 g) were anesthetized with ketamine-xylazine (66 and 1.6 mg/kg i.p., respectively). Adult rat cardiac fibroblasts were isolated by retrograde aortic perfusion. Briefly, hearts were digested with collagenase type B solution for 1 h, and cells were centrifuged at 500 rpm for 2 min. The supernatant, mainly adult rat cardiac fibroblasts, was centrifuged at 1000 rpm for 10 min, resuspended in Dulbecco's Modified Eagle Medium: Nutrient Mixture F-12 (DMEM F-12) plus 15% fetal bovine serum (FBS) and then seeded in nontreated culture dishes during 3 h. Cells were washed with phosphate buffered saline to eliminate debris and nonadherent cells. Adult rat cardiac fibroblasts were used at passage one and seeded on 60 mm cell culture dishes in DMEM F-12 plus 10% FBS and incubated at […] for 3 h. To synchronize cells, they were washed and incubated in DMEM F-12 (without serum, 0% FBS) for 24 h before experimentation. Cell proliferation was determined in cardiac fibroblasts incubated for 24 h with and without retro-inverse angiotensin-(1-9) in DMEM F-12 5% FBS. Cells were trypsinized and cell number was determined using trypan blue method in a Neubauer chamber.

[2] = test system: cardiac myocytes isolated from neonatal Sprague-Dawley rat ventricles; experiment: Norepinephrine-induced cardiomyocyte hypertrophy, western blot of β-MHC and ANP; format: cell-based; settings: 1, 10 or 100 μM peptide, 10 μM norepinephrine
Method: Cardiac myocytes were isolated from neonatal Sprague-Dawley rat ventricles. Cardiac myocytes were plated at 70% final density in gelatin-coated wells (12-well plates) or in 60-mm Petri dishes and maintained at 37° C. in a humidified atmosphere of 5% CO2/95% air for 24 h in Dulbecco's Modified Eagle's medium [(DMEM)/M199](4:1) containing 10% fetal bovine serum and 5% fetal calf serum. Serum was withdrawn 24 h before preincubation with 1, 10 or 100 μM retro-inverse angiotensin-(1-9) for 1 h; then, 10 μM norepinephrine (Sigma, St Louis, Missouri, USA) were added and the cultures were incubated for 24 h. Then cells were washed with PBS at 4° C. and then cells were lysed with 50 μL of RIPA lysis buffer (Tris-HCl 10 mM pH 7.4, EDTA 5 mM, NaCl 50 mM, deoxycholic acid 1%, Triton X-100 1% v/v) supplemented with phosphatase and protease inhibitors (Roche). After centrifugation at 12,000 r.p.m. for 15 min at 4° C., the supernatat was recovered; total protein content was determined by using Bradford (BioRad protein assay, BioRad, Hercules, CA, USA). Proteins were denatured in SDS-PAGE 4× buffer and resolved in 12% PAGE-SDS. After electrotransference, beta-myosin heavy chain (β-MHC) and atrial natriuretic peptide (ANP) were used as hypertrophic markers. β-tubulin was used as loading control. As expected, norepinephrine 10 μM for […], a cardiomyocyte hypertrophy inducer, triggered β-MHC and ANP increase (FIG. 3).

[3] = Stability in human serum determined by HPLC; format: in vitro ADME; settings: 37° C.
Method: The retro-inverse peptides were dissolved in PBS to obtain a final concentration of 1 mM. From this stock, an aliquot of 50 μL was taken and diluted to 450 μL of human serum (Sigma Aldrich from human male AB plasma, USA origin, sterile-filtered) at 37° C. under agitation, to obtain an initial concentration of […] and incubated for 48 h. Aliquots of 50 μL were extracted at 0, 5, 10 min and 1, 3, 6, 24 and 48 h and added to 200 μL of methanol at 4° C. for 30 min to precipitate serum proteins. The samples were then centrifuged at 13,000 g in Hermle Cooling Centrifuge Z 326 K 311.00 V01 at 4° C. for 30 min. The supernatants (approximately 200 μL) were obtained, placed in vials, and then analyzed by HPLC. All analyzes were performed on the Perkin Elmer auto sampler flexo HPLC, using a reverse phase 4.6×100 mm column with a particle size of […] (Waters XBridge Peptide BEH C18 Column). Mobile phase A was 100% acetonitrile and phase B was TFA 0.0004% in Milli-Q water. The initial composition of eluent was 5% A and 95% B for 1 min and then a linear gradient to reach 100% A in 19 min and then return to the initial composition in 4 min, with a total run time of 25 min. The eluent flow was 0.9 mL/min and the temperature of the column was adjusted to 26° C. L measurement was performed at a UV signal of 220 nm wavelength. Where 50 μL was injected per sample. Peptides were identified based on their retention time in the respective chromatogram obtained in the Chromera-HPLC flexar program.

Molecule: O=c1[nH]c(=O)n([C@H]2C[C@H](O)[C@@H](CO)O2)cc1Br [bromodeoxyuridine, reference compound]
fibroblast proliferation [1]: comparable to bromodeoxyuridine

degradation after incubation with human serum ([3]; 24 h incubation): no significant degradation
Molecule: CC[C@@H](C)[C@@H](NC(=O)[C@@H](Cc1c[nH]cn1)NC(=O)[C@H]1CCCN1C(=O)[C@@H](Cc1ccccc1)NC(=O)[C@H](N)Cc1c[nH]cn1)C(=O)N[C@H](Cc1ccc(O)cc1)C(=O)N[C@@H](C(=O)N[C@H](CCCNC(=N)N)C(=O)N[C@H](CC(=O)O)C(N)=O)C(C)C [retro-inverse angiotensin-(1-9) amide, ^DH^DF^DP^DH^DI^DY^DV^DR^DD-CONH2] (H-[dH][dF][dP][dH][dI][dY][dV][dR][dD]-NH2)
increase of ANP induced by norepinephrine [2]: blocked

degradation after incubation with human serum ([3]; 3 h incubation): completely degraded
Molecule: DRVYIHPFH [angiotensin-(1-9), Asp-Arg-Val-Tyr-Ile-His-Pro-Phe-His]
